Measured values reported in patent US20130164813A1, “Method for Inhibiting Transglutaminase 2 Activity Using 2-alkyloxy-3-phenylethynyl-4a,5-dihydropyrido[2,3-b]pyrazine Derivatives” (DONGGUK UNIVERSITY INDUSTRY-ACADEMIC COOPERATION FOUNDATION, priority 2011, published 2013).

Assays:
Transglutaminase 2 = molecular target: T1, Transglutaminase 2 (Cavia cutleri, UniProt P08587); assay: In vitro assay for inhibitory effect on TGase 2 ([1,4-14C] putrescine incorporation into succinylated casein); assay type: biochemical
T1 construct: purchased Sigma-Aldrich T5398
T1 sequence (P08587 1-690): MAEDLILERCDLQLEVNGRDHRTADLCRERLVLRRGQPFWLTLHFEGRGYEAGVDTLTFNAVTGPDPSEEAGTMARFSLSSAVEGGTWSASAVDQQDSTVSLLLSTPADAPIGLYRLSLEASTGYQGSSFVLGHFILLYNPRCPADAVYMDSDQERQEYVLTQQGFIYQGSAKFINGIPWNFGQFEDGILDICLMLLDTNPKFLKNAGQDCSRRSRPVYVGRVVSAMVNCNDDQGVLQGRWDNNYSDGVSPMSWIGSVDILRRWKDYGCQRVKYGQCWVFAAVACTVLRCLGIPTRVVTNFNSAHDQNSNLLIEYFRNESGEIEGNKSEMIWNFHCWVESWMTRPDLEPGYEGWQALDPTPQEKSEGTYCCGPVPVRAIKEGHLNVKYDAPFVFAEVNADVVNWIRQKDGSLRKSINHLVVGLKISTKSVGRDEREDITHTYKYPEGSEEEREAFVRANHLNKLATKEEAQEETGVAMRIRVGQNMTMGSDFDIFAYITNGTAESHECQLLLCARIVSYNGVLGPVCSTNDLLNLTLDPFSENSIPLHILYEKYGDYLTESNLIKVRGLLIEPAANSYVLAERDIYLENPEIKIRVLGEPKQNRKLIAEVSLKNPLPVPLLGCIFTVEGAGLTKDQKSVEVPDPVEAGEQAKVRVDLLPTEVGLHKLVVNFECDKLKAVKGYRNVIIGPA
Description: In vitro Assay for Inhibitory effect of 2-alkyloxy-3-phenylethynyl-4a,5-dihydropyrido[2,3-b]pyrazine derivative on TGase 2.
Method. […] Succinylated casein was purchased from Calbiochem (Cat. No. 573464), and 1 g of the powder was dissolved in 50 ml of a reaction buffer solution containing 5 mM DTT (0.1 M Tris-acetate (pH 8.0), 10 mM CaCl2, 0.15 M NaCl, 1.0 mM EDTA). This solution was stored in a deep freezer for further use. [1,4-14C] Putrescine dihydrochloride was purchased from GE Healthcare (Cat. No. CFA301), and the stock solution was diluted with distilled water to yield a radiological dose of 5 μCi/ml. Transglutaminase 2 was purchased from Sigma-Aldrich (Cat. No. T5398), and diluted with distilled water to yield a final concentration of 1 unit/ml. 2-Alkyloxy-3-phenylethynyl-4a,5-dihydropyrido[2,3-b]pyrazine derivative was dissolved at a concentration of 1 mM to prepare its stock solution, and the stock solution was diluted with DMSO to prepare solutions having various concentrations.
450 μl of succinylated casein solution and 50 μl of [1,4-14C] putrescine dihydrochloride solution were mixed together to prepare a substrate solution. 96 μl of the reaction buffer, 3 μl of the stock solution of the compounds of the present invention, and 1 μl of the stock solution of transglutaminase were mixed together to prepare each sample, followed by incubation at 37° C. for 10 min. 500 μl of the substrate solution and 100 μl of sample solution were mixed well, and the mixture was incubated at 37° C. for 2 hrs and then the reaction terminated by adding 4.5 ml of cold (4° C.) 7.5% TCA. The final solution was stored at 4° C. for 1 hr. The TCA-protein precipitates were filtered through a GF/glass fiber filter, washed with 25 ml of cold 5% TCA, and dried. Radioactivity of cross-linked protein was measured using a β-counter (Beckman Coulter), and compensated by the activity of DMSO-control group as a standard. The activity of transglutaminase was represented by the measured values.

US31 = assay: SRB test, renal cancer cell line US31; assay type: cell-based; conditions: 48 h, read-out: IG50 (×E−7)
Description: (§1) Test of Anti-cancer efficacy in the Cancer cell line. In order to examine anti-cancer efficacy of 2-alkyloxy-3-phenylethynyl-4a,5-dihydropyrido[2,3-b]pyrazine derivatives, Eight renal cancer cell lines were treated to perform an SRB test. In order to compare the anti-cancer efficacy, sutent® (Pfizer) was used for comparison.
(§2) 1) Method (SRB Test). The cancer cell lines were cultured in an RPMI 1640 medium containing 5% fetal bovine serum and 2 mM L-glutamine. The cancer cells were inoculated into a 96 well microtiter plate at a density of 5,000 or 40,000 cells/well. The cells were incubated at 37° C., 5% CO2, 95% air and 100% humidity for 24 hours prior to drug treatment.
(§3) After 24 hours, the cells were fixed with TCA at the time of drug addition (Tz). The drug was treated by 10-fold or log scale serial dilutions, and the efficacy was examined at a concentration of 5 point or more. After drug treatment, the cells were incubated for 48 hours. […] Bound stain was subsequently solubilized with trizma base, and the absorbance was read at 515 nm.
(§4) Growth inhibitory efficacy was measured by using the seven absorbance measurements. [time zero, (Tz), control growth, (C), and test growth in the presence of drug at the five concentration levels (Ti)], the percentage growth was calculated at each of the drug concentrations levels. […]

SN12C = assay: SRB test, renal cancer cell line SN12C; assay type: cell-based; conditions: Homo sapiens, 48 hours, read-out: IG50 (×E−7)
Description: as §1, §2, §3, §4

CAKI-I = assay: SRB test, renal cancer cell line CAKI-I; assay type: cell-based; conditions: 48 hours, read-out: IG50 (×E−7)
Description: as §1, §2, §3, §4

786-O = assay: SRB test, renal cancer cell line 786-O; assay type: cell-based; conditions: Homo sapiens, 786-0, 48 hours, read-out: IG50 (×E−7)
Description: as §1, §2, §3, §4

renal cancer cell lines = assay: SRB test, eight renal cancer cell lines together; assay type: cell-based
Description: as §1, §2, §3, §4

A498 = assay: SRB test, renal cancer cell line A498; assay type: cell-based; conditions: Homo sapiens, A498, 48 hours, read-out: IG50 (×E−7)
Description: as §1, §2, §3, §4

TK10 = assay: SRB test, renal cancer cell line TK10; assay type: cell-based; conditions: Homo sapiens, TK-10, TK10, 48 hours, read-out: IG50 (×E−7)
Description: as §1, §2, §3, §4

RXF393 = assay: SRB test, renal cancer cell line RXF393; assay type: cell-based; conditions: Homo sapiens, RXF 393, RXF393, 48 hours, read-out: IG50 (×E−7)
Description: as §1, §2, §3, §4

ACHN = assay: SRB test, renal cancer cell line ACHN; assay type: cell-based; conditions: Homo sapiens, 48 hours, read-out: IG50 (×E−7)
Description: as §1, §2, §3, §4

MDA-MB-231 cells = assay: Anti-cancer efficacy on MDA231 breast cancer cell line by animal study (subcutaneous xenograft); assay type: in vivo; conditions: 4 mg/kg, compared to the cisplatin-treated group, FIGS. 3 and 4
Description: Evaluation of Anti-cancer efficacy of TGase 2 inhibitor on MDA231 breast cancer cell line by animal study.
MDA-MB-231 cells were cultured in a DMEM medium containing 10% FBS.
8×10^6 of MDA-MB-231 cells were subcutaneously injected into 7-week-old female Balb/c-nude mice. Four TGase inhibitors and doxorubicin were co-administered, and the effects were examined Group 1: saline. […] Group 3: 2-alkyloxy-3-phenylethynyl-4a,5-dihydropyrido[2,3-b]pyrazine derivative (4 mg/kg).
The prepared cancer cell, MDA-MB231/luciferase (8×10^6 cells/head) was subcutaneously injected into animals 7 days after their arrival. When a volume of the injected cancer cells reached 100 mm3, drug treatment was started.
After injection of MDA-MB-231, when a volume of the injected tumor reached 100 mm3, drug treatment was performed. After 3-4 weeks, the mice were sacrificed.
After the tumor volume reached 100 mm3, the size was measured three times per week during the drug treatment period. The tumor volume was calculated as ‘long axis×long axis×short axis/2’.

SMILES	inhibition at 10 µM (Transglutaminase 2) [%]	other results
C(#Cc1nc2ncccc2nc1OCCCN1CCOCC1)c1ccccc1 [Example 6, 4-(3-(3-(phenylethynyl)pyrido[3,2-b]pyrazin-2-yloxy)propyl)morpholine]	32	
O=C1CCCN1CCCOc1nc2cccnc2nc1C#Cc1ccccc1 [Example 7, 1-(3-(3-(phenylethynyl)pyrido[3,2-b]pyrazin-2-yloxy)propyl)pyrrolidin-2-one]	43	
C(#Cc1nc2ncccc2nc1OCCN1CCCCC1)c1ccccc1 [Example 2, 3-phenylethynyl-2-(2-(piperidin-1-yl)ethoxy)pyrido[2,3-b]pyrazine]	83	
CN(C)c1ccccc1C#Cc1nc2ncccc2nc1OCCN1CCCC1 [Example 42, N,N-dimethyl-2-((2-(2-(pyrrolidin-1-yl)ethoxy)pyrido[3,2-b]pyrazin-3-yl)ethynyl)benzenamine]	63	
C(#Cc1nc2ncccc2nc1OCCCN1CCCC1)c1ccccc1 [Example 4, 3-(phenylethynyl)-2-(3-(pyrrolidin-1-yl)propoxy)pyrido[3,2-b]pyrazine]	59	
C(#Cc1nc2ncccc2nc1OCCN1CCOCC1)c1ccccc1 [Example 3, 4-(2-(3-(phenylethynyl)pyrido[3,2-b]pyrazin-2-yloxy)ethyl)morpholine]	47	
C(#Cc1nc2ncccc2nc1OCCCN1CCCCC1)c1ccccc1 [Example 5, 3-(phenylethynyl)-2-(3-(piperidin-1-yl)propoxy)pyrido[3,2-b]pyrazine]	54	
CN(C)c1ccccc1C#Cc1nc2ncccc2nc1OCCN1CCCCC1 [Example 43, N,N-dimethyl-2-((2-(2-(piperidin-1-yl)ethoxy)pyrido[3,2-b]pyrazin-3-yl)ethynyl)benzenamine]	54	
COc1ccc(C#Cc2nc3ncccc3nc2OCCN2CCCCC2)cc1 [Example 15, 3-(4-methoxyphenylethynyl)-2-(2-piperidin-1-ylethoxy)pyrido[3,2-b]pyrazine]	51	
CN(C)c1ccc(C#Cc2nc3ncccc3nc2OCCN2CCCCC2)cc1 [Example 9, N,N-dimethyl-4-((2-(2-(piperidin-1-yl)ethoxy)pyrido[3,2-b]pyrazin-3-yl)ethynyl)benzenamine]	57	
CN(C)c1ccc(C#Cc2nc3ncccc3nc2OCCN2CCCC2)cc1 [Example 8, N,N-dimethyl-4-((2-(2-(pyrrolidin-1-yl)ethoxy)pyrido[3,2-b]pyrazin-3-yl)ethynyl)benzenamine]	68	
C(#Cc1nc2ncccc2nc1OCCN1CCCC1)c1ccccc1 [Example 1, 3-phenylethynyl-2-(2-(pyrrolidin-1-yl)ethoxy)pyrido[2,3-b]pyrazine]	91	IC50 (US31): 5490 nM; IC50 (SN12C): 186 nM; IC50 (CAKI-I): 71 nM; IC50 (786-O): 225 nM; GI50 (renal cancer cell lines; eight renal cancer cell lines, SRB, read-out: Average GI50 over all cell lines): 430 nM; anti-cancer efficacy compared with SUTENT (renal cancer cell lines; renal cancer cell line, SRB growth rate, FIG. 2): better than that of SUTENT®; IC50 (A498): 5610 nM; IC50 (Transglutaminase 2; FIG. 1): 33.8 nM; IC50 (TK10): 529 nM; IC50 (RXF393): 179 nM; IC50 (ACHN): 137 nM; reduction in the tumor size (MDA-MB-231 cells): the best effect of a reduction in the tumor size
Cc1ccc(C#Cc2nc3ncccc3nc2OCCN2CCCC2)cc1 [Example 21, 2-(2-(pyrrolidin-1-yl)ethoxy)-3-(p-tolylethynyl)pyrido[3,2-b]pyrazine]	52	
COc1ccc(C#Cc2nc3ncccc3nc2OCCN2CCCC2)cc1 [Example 14, 3-(4-methoxyphenylethynyl)-2-(2-pyrrolidin-1-ylethoxy)pyrido[3,2-b]pyrazine]	64	
